# Laboratory results from patent US20090246172A1, “COMPOSITIONS COMPRISING EPOTHILONES AND THEIR USE FOR THE TREATMENT OF CARCINOID SYNDROME” (priority 2001, published 2009).
# Tested on: carcinoid syndrome and/or at least one neuroendocrine tumor
# Experiment: treatment of a human patient with epothilone B (Example 1)
# Format: in vivo
# Method: A human patient experiencing 3 loose bowel movements each day, frequent nausea and anorexia presented a plasma serotonin level of 361 ng/ml and an octreotide scan showing foci of abnormal activity in the pelvis, liver, upper chest and neck. They received 2.5 mg/m^2 of epothilone B weekly every 3 of 4 weeks.
compound,measurement,setting,value
C/C(=C\c1csc(C)n1)[C@@H]1C[C@@H]2O[C@]2(C)CCC[C@H](C)[C@H](O)[C@@H](C)C(=O)C(C)(C)[C@@H](O)CC(=O)O1 [epothilone B],octreotide scan,"2.5 mg/m^2 weekly every 3 of 4 weeks, after 6 doses plus further about two months",no evidence of disease
same,octreotide scan,"2.5 mg/m^2 weekly every 3 of 4 weeks, after 6 doses, before treatment foci in pelvis, liver, upper chest and neck",minimal focus of activity in the pelvis alone
same,tumor burden of the patient,conclusion drawn from the observations in Example 1 ('make it likely'),significantly decreased
same,plasma serotonin level,"patient, 2.5 mg/m^2 weekly every 3 of 4 weeks, 6 doses plus further about two months, level before treatment 361 ng/ml, within normal limits",62 ng/mL
